pIC50: −log10 of the molar value.
Each compound was assayed against human GHS-R 1a (Homo sapiens, UniProt Q92847) (assay: GHS-R 1a receptor-ligand binding assay (membrane preparations from transfected LLC PK-1 cells)). Settings: displacement of 125I-His9-ghrelin; plasma membranes of LLC PK-1 cells transiently transfected with human GHS-R 1a; mean of at least two independent experiments in triplicates.
Chain of human GHS-R 1a (Q92847 whole entry): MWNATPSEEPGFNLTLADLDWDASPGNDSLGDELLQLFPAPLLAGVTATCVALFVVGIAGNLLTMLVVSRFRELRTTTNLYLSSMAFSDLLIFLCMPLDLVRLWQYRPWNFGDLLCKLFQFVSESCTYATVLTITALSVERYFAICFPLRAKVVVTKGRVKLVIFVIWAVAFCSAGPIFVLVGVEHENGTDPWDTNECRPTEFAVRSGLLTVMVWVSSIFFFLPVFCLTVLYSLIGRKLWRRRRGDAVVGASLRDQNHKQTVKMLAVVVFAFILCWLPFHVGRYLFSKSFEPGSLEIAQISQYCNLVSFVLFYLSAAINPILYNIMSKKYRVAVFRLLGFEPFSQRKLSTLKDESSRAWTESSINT
Design: expressed in transfected cells
Experimental: II) GHS-R 1a Receptor-Ligand Binding Assay (Membrane Preparations from Transfected LLC PK-1 Cells)
The GHS-R 1a receptor binding/affinity studies were performed according to Guerlavais et al. (J. Med. Chem. 2003, 46: 1191-1203).
Isolated plasma membranes from LLC PK-1 cells, a renal epithelial cell line originally derived from porcine kidneys (ECACC No. 86121112) (10 μg of protein), that were transiently transfected with human GHS-R 1a cDNA (Guerlavais et al., J. Med. Chem. 2003, 46: 1191-1203), were incubated in homogenization buffer HB [50 mM Tris (pH 7.3), 5 mM MgCl2, 2.5 mM EDTA, and 30 μg/mL bacitracin (Sigma)] for 60 min at 25° C. (steady-state conditions) with […] ^125I-His^9-ghrelin (Amersham) in the presence or absence of competing compounds (compounds of the invention).
Nonspecific binding was defined using an excess (10^−6 M) of ghrelin. The binding reaction was stopped by addition of 4 mL of ice-cold HB followed by rapid filtration over Whatman GP/C filters presoaked with 0.5% polyethyleneimine to prevent excessive binding of radioligand to the filters. Filters were rinsed three times with 3 mL of icecold wash buffer [50 mM Tris (pH 7.3), 10 mM MgCl2, 2.5 mM EDTA, and 0.015% (w/v) X-100 Triton], and the radioactivity bound to membranes was measured in a gammacounter (Kontron Analytical Gamma Matic, Automatic gamma counting system).
The concentration of test compounds required to inhibit radiolabelled ghrelin binding by 50% (IC50) was determined by fitting competitive binding curves using non-linear regression (PRISM 3.0, Graph Pad San Diego, USA).
In the following table 2 results obtained for selected compounds of the invention are presented in comparison to an example of the prior art. IC50 values given are the mean of at least two independent experiments performed in triplicates.
NCCCC(=O)N[C@H](Cc1c[nH]c2ccccc12)c1nnc(CCCc2c[nH]c3ccccc23)n1Cc1cccc2ccccc12 [Compound 69, N-((R)-1-(5-(3-(1H-indol-3-yl)propyl)-4-((naphthalen-1-yl)methyl)-4H-1,2,4-triazol-3-yl)-2-(1H-indol-3-yl)ethyl)-4-aminobutanamide] gave a pIC50 of 6.90.
Work on O=C(N[C@H](Cc1c[nH]c2ccccc12)c1nnc(CCc2ccccc2)n1CCc1ccccc1)c1cnccn1 [Compound 66, N-((R)-2-(1H-indol-3-yl)-1-(4,5-diphenethyl-4H-1,2,4-triazol-3-yl)ethyl)pyrazine-2-carboxamide] yielded a pIC50 of 6.08.
For O=C(N[C@H](Cc1c[nH]c2ccccc12)c1nnc(CCCc2c[nH]c3ccccc23)n1Cc1cccc2ccccc12)c1ccccn1 [Compound 45, N-((R)-1-(5-(3-(1H-indol-3-yl)propyl)-4-((naphthalen-1-yl)methyl)-4H-1,2,4-triazol-3-yl)-2-(1H-indol-3-yl)ethyl)picolinamide], the pIC50 was 7.54.
For NCCCC(=O)N[C@H](Cc1c[nH]c2ccccc12)c1nnc(CCc2c[nH]c3ccccc23)n1Cc1cccc2ccccc12 [Compound 67, N-((R)-1-(5-(2-(1H-indol-3-yl)ethyl)-4-((naphthalen-1-yl)methyl)-4H-1,2,4-triazol-3-yl)-2-(1H-indol-3-yl)ethyl)-4-aminobutanamide], the pIC50 was 9.57.
COc1ccc(Cn2c(CCc3ccccc3)nnc2[C@@H](Cc2ccc3ccccc3c2)NC(=O)C2CCNCC2)cc1 [Compound 54, N-((R)-1-(4-(4-methoxybenzyl)-5-phenethyl-4H-1,2,4-triazol-3-yl)-2-(naphthalen-2-yl)ethyl)piperidine-4-carboxamide] showed a pIC50 of 9.52.
In the case of COc1ccc(Cn2c(CCc3ccccc3)nnc2[C@@H](Cc2ccc3ccccc3c2)NC(=O)C2CCCN2)cc1 (stereo partly drawn) [Compound 59, N-((R)-1-(4-(4-methoxybenzyl)-5-phenethyl-4H-1,2,4-triazol-3-yl)-2-(naphthalen-2-yl)ethyl)pyrrolidine-2-carboxamide], the pIC50 was 7.56.
In the case of O=C(N[C@H](Cc1c[nH]c2ccccc12)c1nnc(CCc2ccccc2)n1CCc1ccccc1)c1ccccn1 [Compound 64, N-((R)-2-(1H-indol-3-yl)-1-(4,5-diphenethyl-4H-1,2,4-triazol-3-yl)ethyl)picolinamide], the pIC50 was 6.70.
With O=C(N[C@H](Cc1c[nH]c2ccccc12)c1nnc(CCc2ccccc2)n1CCc1ccccc1)C1CCCCC1 [Compound 62, N-((R)-2-(1H-indol-3-yl)-1-(4,5-diphenethyl-4H-1,2,4-triazol-3-yl)ethyl)cyclohexane-carboxamide] the pIC50 was 6.15.
In the case of COc1ccc(Cn2c(CCc3ccccc3)nnc2[C@@H](Cc2cccc3ccccc23)NC(=O)C(C)(C)N)cc1 [Compound 77, N-((R)-1-(4-(4-methoxybenzyl)-5-phenethyl-4H-1,2,4-triazol-3-yl)-2-(naphthalen-1-yl)ethyl)-2-amino-2-methylpropanamide], the pIC50 was 7.91.
Work on NCCCC(=O)N[C@H](Cc1c[nH]c2ccccc12)c1nnc(CCc2ccccc2)n1Cc1cccc2ccccc12 [Compound 68, N-((R)-2-(1H-indol-3-yl)-1-(4-((naphthalen-1-yl)methyl)-5-phenethyl-4H-1,2,4-triazol-3-yl)ethyl)-4-aminobutanamide] yielded a pIC50 of 6.74.
For O=C(N[C@H](Cc1c[nH]c2ccccc12)c1nnc(CCCc2c[nH]c3ccccc23)n1Cc1cccc2ccccc12)C1CCOCC1 [Compound 46, N-((R)-1-(5-(3-(1H-indol-3-yl)propyl)-4-((naphthalen-1-yl)methyl)-4H-1,2,4-triazol-3-yl)-2-(1H-indol-3-yl)ethyl)-tetrahydro-2H-pyran-4-carboxamide], the pIC50 was 6.84.
COc1ccc(Cn2c(CCc3ccccc3)nnc2[C@@H](Cc2cccc3ccccc23)NC(=O)C2CCNCC2)cc1 [Compound 78, N-((R)-1-(4-(4-methoxybenzyl)-5-phenethyl-4H-1,2,4-triazol-3-yl)-2-(naphthalen-1-yl)ethyl)piperidine-4-carboxamide] showed a pIC50 of 8.66.
Work on COc1ccc(Cn2c(CCc3ccccc3)nnc2[C@@H](Cc2cccc3ccccc23)NC(=O)C2CCCN2)cc1 (stereo partly drawn) [Compound 80, N-((R)-1-(4-(4-methoxybenzyl)-5-phenethyl-4H-1,2,4-triazol-3-yl)-2-(naphthalen-1-yl)ethyl)pyrrolidine-2-carboxamide] yielded a pIC50 of 7.73.
With O=C(N[C@H](Cc1c[nH]c2ccccc12)c1nnc(CCc2c[nH]c3ccccc23)n1Cc1ccc(Cl)c(Cl)c1)C1CCCN1 (stereo partly drawn) [Compound 53, N-((R)-1-(5-(2-(1H-indol-3-yl)ethyl)-4-(3,4-dichlorobenzyl)-4H-1,2,4-triazol-3-yl)-2-(1H-indol-3-yl)ethyl)pyrrolidine-2-carboxamide] the pIC50 was 6.80.
In the case of O=C(Cc1ccccn1)N[C@H](Cc1c[nH]c2ccccc12)c1nnc(CCc2ccccc2)n1Cc1cccc2ccccc12 [Compound 50, N-((R)-2-(1H-indol-3-yl)-1-(4-((naphthalen-1-yl)methyl)-5-phenethyl-4H-1,2,4-triazol-3-yl)ethyl)-2-(pyridin-2-yl)acetamide], the pIC50 was 6.97.
O=C(N[C@H](Cc1c[nH]c2ccccc12)c1nnc(CCc2ccccc2)n1CCc1ccccc1)C1CCNCC1 [Compound 71, N-((R)-2-(1H-indol-3-yl)-1-(4,5-diphenethyl-4H-1,2,4-triazol-3-yl)ethyl)piperidine-4-carboxamide] showed a pIC50 of 7.04.
Work on O=C(Cc1ccccn1)N[C@H](Cc1c[nH]c2ccccc12)c1nnc(CCc2c[nH]c3ccccc23)n1Cc1ccc(Cl)c(Cl)c1 [Compound 52, N-((R)-1-(5-(2-(1H-indol-3-yl)ethyl)-4-(3,4-dichlorobenzyl)-4H-1,2,4-triazol-3-yl)-2-(1H-indol-3-yl)ethyl)-2-(pyridin-2-yl)acetamide] yielded a pIC50 of 7.32.
O=C(Cc1ccccn1)N[C@H](Cc1c[nH]c2ccccc12)c1nnc(CCCc2c[nH]c3ccccc23)n1Cc1cccc2ccccc12 [Compound 40, N-((R)-1-(5-(3-(1H-indol-3-yl)propyl)-4-((naphthalen-1-yl)methyl)-4H-1,2,4-triazol-3-yl)-2-(1H-indol-3-yl)ethyl)-2-(pyridin-2-yl)acetamide] was tested, and the pIC50 was 7.68.
COc1ccc(Cn2c(CCc3ccccc3)nnc2[C@@H](Cc2cccc3ccccc23)NC(=O)c2ccccn2)cc1 [Compound 79, N-((R)-1-(4-(4-methoxybenzyl)-5-phenethyl-4H-1,2,4-triazol-3-yl)-2-(naphthalen-1-yl)ethyl)picolinamide] was tested, and the pIC50 was 8.84.
In the case of COc1ccc(Cn2c(CCc3c[nH]c4ccccc34)nnc2[C@@H](Cc2ccc3ccccc3c2)NC(=O)c2ccccn2)cc1 [Compound 58, N-((R)-1-(5-(2-(1H-indol-3-yl)ethyl)-4-(4-methoxybenzyl)-4H-1,2,4-triazol-3-yl)-2-(naphthalen-2-yl)ethyl)picolinamide], the pIC50 was 9.00.
Work on O=C(N[C@H](Cc1c[nH]c2ccccc12)c1nnc(CCc2ccccc2)n1Cc1ccc(-c2ccccc2)cc1)C1CCNCC1 [Compound 74, N-((R)-1-(4-(4-phenylbenzyl)-5-phenethyl-4H-1,2,4-triazol-3-yl)-2-(1H-indol-3-yl)ethyl)piperidine-4-carboxamide] yielded a pIC50 of 7.02.
COc1ccc(Cn2c(CCc3ccccc3)nnc2[C@@H](Cc2ccc3ccccc3c2)NC(=O)c2ccccn2)cc1 [Compound 57, N-((R)-1-(4-(4-methoxybenzyl)-5-phenethyl-4H-1,2,4-triazol-3-yl)-2-(naphthalen-2-yl)ethyl)picolinamide] was tested, and the pIC50 was 9.15.
